Literature values in patent US20190000808A1, “COMPOSITION AND METHODS FOR THE TREATMENT OF BLEPHOPHAROPTOSIS” (Allergan, Inc., priority 2015, published 2019).

Tests used:
[1] = test system: alpha-1 adrenergic receptors on Muller's muscle; conditions: single drop, typically 2.5%; temporary reversal of ptosis

Structure (SMILES)	eyelid elevation [1]	tolerability (accommodation of the eye; topical concentrations above 0.5%, side effects red eyes, ocular pain, brow ache, headache)	effect on accommodation of the eye (accommodation of the eye; topical concentrations below 0.5%)
CNC[C@H](O)c1cccc(O)c1 [phenylephrine]	causes eyelid elevation	–	–
CC[C@@H]1C(=O)OC[C@@H]1Cc1cncn1C [Pilocarpine, (3S,4R)-3-Ethyl-4((1-methyl-1H-imidazol-5-yl)methyl)dihydrofuran-2(3H)-one]	–	not tolerated	minimal effect
